Laboratory results reported in paper PMC11053447, “Human ABC and SLC Transporters: The Culprit Responsible for Unspecific PSMA-617 Uptake?” (Pharmaceuticals, 2024).
Where a SMILES comes first, the peptide text is derived from it. [ ]: non-standard residue; d: D form. Sar = CNCC(=O)O

Experiments:
[1] = molecular target: T1, human OAT4 (Homo sapiens, UniProt Q9NSA0); assay: SLC transporter substrate assay, HEK293-OAT4-LV vs control HEK293-Mock-LV cells; details: 1 min
T1 sequence (Q9NSA0 1-550): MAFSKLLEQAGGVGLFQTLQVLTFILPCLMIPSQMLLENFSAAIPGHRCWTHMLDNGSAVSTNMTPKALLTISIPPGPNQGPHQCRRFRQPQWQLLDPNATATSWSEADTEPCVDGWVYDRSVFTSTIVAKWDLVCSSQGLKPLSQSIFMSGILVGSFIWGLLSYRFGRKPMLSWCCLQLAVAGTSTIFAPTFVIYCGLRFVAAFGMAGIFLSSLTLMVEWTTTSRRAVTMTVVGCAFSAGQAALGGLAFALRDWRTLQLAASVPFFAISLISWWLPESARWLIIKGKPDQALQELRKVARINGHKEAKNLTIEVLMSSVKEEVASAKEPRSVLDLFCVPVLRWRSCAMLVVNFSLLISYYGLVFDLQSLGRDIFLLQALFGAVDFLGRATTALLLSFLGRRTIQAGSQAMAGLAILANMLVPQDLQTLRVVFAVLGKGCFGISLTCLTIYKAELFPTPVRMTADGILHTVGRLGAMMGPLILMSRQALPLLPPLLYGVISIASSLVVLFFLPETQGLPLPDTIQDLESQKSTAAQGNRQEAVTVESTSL

[2] = molecular target: T2, human PEPT2 (Homo sapiens, UniProt Q16348); assay: SLC transporter substrate assay, CHO-K1-PEPT2 vs control CHO-K1 cells; details: 8 min
T2 sequence (Q16348 1-729): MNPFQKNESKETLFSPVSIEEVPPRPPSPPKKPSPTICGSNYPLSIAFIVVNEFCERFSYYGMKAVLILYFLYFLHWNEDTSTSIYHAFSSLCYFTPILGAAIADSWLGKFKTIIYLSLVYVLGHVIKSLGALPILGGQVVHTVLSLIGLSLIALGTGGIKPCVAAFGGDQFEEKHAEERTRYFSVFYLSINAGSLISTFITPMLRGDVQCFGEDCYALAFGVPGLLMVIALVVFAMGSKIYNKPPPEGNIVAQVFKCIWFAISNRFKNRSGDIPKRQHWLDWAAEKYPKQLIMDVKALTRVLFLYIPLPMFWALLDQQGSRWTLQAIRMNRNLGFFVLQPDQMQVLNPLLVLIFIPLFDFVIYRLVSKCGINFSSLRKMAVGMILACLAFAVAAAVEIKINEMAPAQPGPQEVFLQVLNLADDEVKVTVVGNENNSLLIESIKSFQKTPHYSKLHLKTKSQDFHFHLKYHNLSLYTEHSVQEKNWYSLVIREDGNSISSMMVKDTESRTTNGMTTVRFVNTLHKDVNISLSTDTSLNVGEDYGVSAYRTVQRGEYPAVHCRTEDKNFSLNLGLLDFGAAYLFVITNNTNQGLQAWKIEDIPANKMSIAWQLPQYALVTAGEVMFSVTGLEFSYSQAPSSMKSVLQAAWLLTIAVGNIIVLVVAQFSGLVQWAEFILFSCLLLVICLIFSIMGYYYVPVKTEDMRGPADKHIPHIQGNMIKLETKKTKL
Method: The described cells were plated onto standard 24-well tissue culture plates at densities of 5 × 10^5 cells/well. […] Before starting the experiment, the cells were prepared by removing the medium and washing the cells twice with 300 µL of assay buffer. […] The cells were lysed by adding 300 µL of 0.1N NaOH, they were incubated for 10 min at 37 °C and 100 µL samples were taken from all the wells.
The amount of protein in each well was quantified using the BCA kit for protein determination (Sigma-Aldrich, St Louis, MO, USA). Positive controls were performed using a separate 96-well plate format according to Table S8 in SI4.
(§1) SI4. Results of transporter substrate assays (SLC)
Table S8: Parameters of positive controls, control cell lines and plating for SLC transporters assays.
KH: Krebs-Henseleit buffer, HBSS: Hank's balanced salt solution, MES: 2 -(N-morpholino) ethanesulfonic acid, cGMP:
Guanosine cyclic phosphate, E3S: Estrone -3-sulfate, Gly-Sar: Glycylsarcosine, MPP+: 1-methyl-4-phenylpyridinium.
Calculation of fold accumulation values for SLC transporter substrate assays The fold accumulation value was defined as the ratio of uptake of the test substance (TS) or probe substrate into transfected and control cells. If the fold accumulation is > 2 and can be inhibited by a known inhibitor of the transporter, the test substance can be considered as a substrate of the respective transporter.
(§2) Fold accumulation = UPTTRP
• UPTTRP: accumulated amount of test substance (TS) or probe substrate in transfected cells normalized by protein content […]
• UPTCTRL: accumulated amount of test substance (TS) or probe substrate in control cells normalized by protein content […]
Positive control conducted at pH 5.0.
Gly-Sar: Glycylsarcosine.

[3] = molecular target: T3, human OCT3 (Homo sapiens, UniProt O75751); assay: SLC transporter substrate assay, HEK293-OCT3-LV vs control HEK293-Mock-LV cells; type: in vitro ADME; details: 3 min
T3 construct: host or cells: HEK293-OCT3-LV
T3 sequence (O75751 1-556): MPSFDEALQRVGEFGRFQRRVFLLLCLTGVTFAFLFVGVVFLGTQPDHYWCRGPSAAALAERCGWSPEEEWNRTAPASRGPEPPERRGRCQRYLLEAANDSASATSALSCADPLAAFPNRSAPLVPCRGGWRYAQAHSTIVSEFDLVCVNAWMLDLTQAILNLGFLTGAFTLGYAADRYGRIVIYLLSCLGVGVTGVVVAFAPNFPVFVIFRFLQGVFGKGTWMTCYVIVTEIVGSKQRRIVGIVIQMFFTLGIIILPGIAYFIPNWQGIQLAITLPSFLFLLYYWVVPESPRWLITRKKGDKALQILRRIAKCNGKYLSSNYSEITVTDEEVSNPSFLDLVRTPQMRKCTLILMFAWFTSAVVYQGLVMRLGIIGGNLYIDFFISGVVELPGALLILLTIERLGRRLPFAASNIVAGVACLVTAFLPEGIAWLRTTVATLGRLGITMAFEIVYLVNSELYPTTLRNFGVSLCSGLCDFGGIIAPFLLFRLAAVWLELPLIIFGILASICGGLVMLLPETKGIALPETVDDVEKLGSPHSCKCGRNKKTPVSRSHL
Method: as §1
(§3) Human Incubation Positive control substrate/ Control Special Incubation Assay […]
(Cell line) at 37°C [min] [h] […]
into transfected and control cells.
as §2
(§4) PSMA-617 in SLC transporters.
(§5) NA: not analyzed. Test substances were considered as substrates in case of fold accumulation values > 2 combined with inhibition values higher than 50%.
4.7 Organic cation transporter OCT3
(HEK293-OCT3-LV) and control cells (HEK293-Mock-LV) applying 2- and 20-minute incubation periods, measured in SLC transporter substrate assay. […] Concentrations are nominal.
Table S16: ([α,β-3H]Nal)Lu-PSMA-617-accumulation in OCT3 transporter-expressing (HEK293-OCT3-LV) and control […]
(§6) Conditions Accumulation (pmol/mg protein)
Compound Nominal In OCT3 Fold concentration Minutes transporter In control Active accumulation
(§7) [µM] expressing cells transport
(§8) Positive control (accumulation in cpm)
MPP +: 1-methyl -4-phenylpyridinium.

[4] = molecular target: T4, human OAT1 (Homo sapiens, UniProt Q4U2R8); assay: SLC transporter substrate assay, HEK293-OAT1-LV vs control HEK293-Mock-B-LV cells; details: 2 min
T4 sequence (Q4U2R8 1-563): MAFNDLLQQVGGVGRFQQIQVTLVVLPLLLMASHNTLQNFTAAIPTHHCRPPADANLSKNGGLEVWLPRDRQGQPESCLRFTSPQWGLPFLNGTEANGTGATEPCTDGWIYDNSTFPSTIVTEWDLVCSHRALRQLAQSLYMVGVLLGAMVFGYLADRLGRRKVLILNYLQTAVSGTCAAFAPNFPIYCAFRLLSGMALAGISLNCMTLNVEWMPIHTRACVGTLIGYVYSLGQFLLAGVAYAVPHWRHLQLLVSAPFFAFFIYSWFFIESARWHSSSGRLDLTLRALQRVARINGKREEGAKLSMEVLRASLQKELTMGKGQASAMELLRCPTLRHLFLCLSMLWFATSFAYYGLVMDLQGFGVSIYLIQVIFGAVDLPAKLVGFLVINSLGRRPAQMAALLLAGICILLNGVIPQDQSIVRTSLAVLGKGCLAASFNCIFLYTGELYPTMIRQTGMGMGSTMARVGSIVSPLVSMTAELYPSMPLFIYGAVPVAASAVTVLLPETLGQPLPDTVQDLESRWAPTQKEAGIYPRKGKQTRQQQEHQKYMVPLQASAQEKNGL

[5] = molecular target: T5, human OAT2v1 (Homo sapiens, UniProt Q9Y694); assay: SLC transporter substrate assay, HEK293-OAT2v1-LV vs control HEK293-Mock-LV cells; type: in vitro ADME; details: 1 min
T5 construct: host or cells: HEK293-OAT2v1-LV
T5 sequence (Q9Y694 1-546 isoform Q9Y694-2): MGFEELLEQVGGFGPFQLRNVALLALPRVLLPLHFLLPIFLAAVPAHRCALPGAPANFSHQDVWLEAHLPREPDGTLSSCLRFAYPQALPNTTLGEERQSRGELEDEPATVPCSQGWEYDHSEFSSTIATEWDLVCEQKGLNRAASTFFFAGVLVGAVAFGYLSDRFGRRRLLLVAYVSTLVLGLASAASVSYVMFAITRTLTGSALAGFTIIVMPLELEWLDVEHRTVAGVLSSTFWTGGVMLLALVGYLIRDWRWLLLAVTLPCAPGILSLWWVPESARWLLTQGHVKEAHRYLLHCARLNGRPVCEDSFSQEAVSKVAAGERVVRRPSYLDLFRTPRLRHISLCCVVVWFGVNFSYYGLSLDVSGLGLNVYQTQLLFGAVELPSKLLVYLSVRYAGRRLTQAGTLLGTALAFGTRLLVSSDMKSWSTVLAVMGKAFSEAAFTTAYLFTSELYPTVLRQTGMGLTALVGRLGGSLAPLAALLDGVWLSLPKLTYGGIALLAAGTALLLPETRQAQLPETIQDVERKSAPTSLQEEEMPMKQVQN
Method: as §1, §3
(Cell line) at 37°C [min] [h]
OAT2v1 cGMP (1.5) / Mock-B- Poly-D-lysine
as §2, §4, §5
4.4 Organic anion transporter OAT2v1 […]
expressed as mean (n=3) ± SD. Concentrations are nominal.
Table S13: ([α,β-3H]Nal)Lu-PSMA-617-accumulation in OAT2v1 transporter expressing (HEK293-OAT2v1-LV) and […]
as §6
Compound Nominal In OAT2v1 Fold concentration Minutes transporter In control Active accumulation
as §7, §8

[6] = positive control at pH 5.0: Gly-Sar 4 µM + Cefadroxil 200 µM
[7] = positive control at pH 5.0: Gly-Sar 4 µM
[8] = positive control: MPP+ 0.02 µM + Quinidine 1000 µM
[9] = positive control: Tenofovir 5 µM + Probenecid 300 µM
[10] = positive control: Tenofovir 5 µM
[11] = positive control: cGMP 1.82 µM + Indomethacin 300 µM

Compound: C[C@]12CC[C@@H]3c4ccc(OS(=O)(=O)[O-])cc4CC[C@H]3[C@@H]1CCC2=O.[Na+] [E3S, estrone-3-sulfate sodium salt, reference compound]
- Fold accumulation ([1]; positive control: E3S 1 µM + Benzbromarone 300 µM): 5.12
- Fold accumulation ([1]; positive control: E3S 1 µM): 24.16

Compound: CN(CC(=O)O)C(=O)CN [Gly-Sar, glycylsarcosine, reference compound] (H-Gly-[Sar]-OH)
- Accumulation in PEPT2 transporter expressing cells [2, 6]: 263.67 cpm
- Accumulation in control cells [2, 6]: 34.33 cpm
- Accumulation, active transport [2, 6]: 229.33 cpm
- Fold accumulation [2, 6]: 7.68
- Accumulation in PEPT2 transporter expressing cells [2, 7]: 1570.00 cpm
- Accumulation in control cells [2, 7]: 31.33 cpm
- Accumulation, active transport [2, 7]: 1538.67 cpm
- Fold accumulation [2, 7]: 50.11

Compound: C[n+]1ccc(-c2ccccc2)cc1 [MPP+, 1-Methyl-4-phenylpyridin-1-ium, reference compound]
- Accumulation in OCT3 transporter expressing cells [3, 8]: 1429.667 cpm
- Accumulation in control cells [3, 8]: 233.000 cpm
- Accumulation, active transport [3, 8]: 1196.667 cpm
- Fold accumulation [3, 8]: 6.14
- Accumulation in OCT3 transporter expressing cells ([3]; positive control: MPP+ 0.02 µM): 10728.333 cpm
- Accumulation in control cells ([3]; positive control: MPP+ 0.02 µM): 629.333 cpm
- Accumulation, active transport ([3]; positive control: MPP+ 0.02 µM): 10099.000 cpm
- Fold accumulation ([3]; positive control: MPP+ 0.02 µM): 17.05

Compound: C[C@H](Cn1cnc2c(N)ncnc21)OCP(=O)(O)O [Tenofovir, tenofovir, reference compound]
- Accumulation in OAT1 transporter expressing cells [4, 9]: 372.67 cpm
- Accumulation in control cells [4, 9]: 77.00 cpm
- Accumulation, active transport [4, 9]: 295.67 cpm
- Fold accumulation [4, 9]: 4.84
- Accumulation in OAT1 transporter expressing cells [4, 10]: 7739.67 cpm
- Accumulation in control cells [4, 10]: 85.00 cpm
- Accumulation, active transport [4, 10]: 7654.67 cpm
- Fold accumulation [4, 10]: 91.05

Compound: Nc1nc2c(ncn2[C@@H]2O[C@@H]3COP(=O)(O)O[C@H]3[C@H]2O)c(=O)[nH]1 [cGMP, guanosine 3′,5′-cyclic monophosphate, reference compound]
- Accumulation in OAT2v1 transporter expressing cells [5, 11]: 551.67 cpm
- Accumulation in control cells [5, 11]: 67.67 cpm
- Accumulation, active transport [5, 11]: 484.00 cpm
- Fold accumulation [5, 11]: 8.15
- Accumulation in OAT2v1 transporter expressing cells ([5]; positive control: cGMP 1.82 µM): 9207.33 cpm
- Accumulation in control cells ([5]; positive control: cGMP 1.82 µM): 75.00 cpm
- Accumulation, active transport ([5]; positive control: cGMP 1.82 µM): 9132.33 cpm
- Fold accumulation ([5]; positive control: cGMP 1.82 µM): 122.76
